Laboratory results reported in US9376442B2, “Methylpyrrolopyrimidinecarboxamides” (Takeda GmbH, priority 2009, dated 2016).

Molecular target: T1, PDE5A1 (Homo sapiens, UniProt O76074)
T1 construct: from tissue; host or cells: human platelets from fresh donor blood (10,000 x g supernatant of sonicated lysate)
Experiment: Inhibition of type 5 phosphodiesterase (PDE5) activity, modified SPA test with human platelet lysate
Type: biochemical
Details: 0.5 μM cGMP, read-out: PDE5A1 inhibitory values [measured as −log IC50 (mol/l)] (converted)
How it was run: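 Scintillation proximity assay with [3H]cGMP tracer at 0.5 μM total cGMP, stopped after 15 min with beads containing IBMX. PDE3 and PDE2 activities suppressed with motapizone (1 μM) and a PDE2 inhibitor (10 nM). Human platelet supernatant served as the enzyme, with compound preincubated 5 min at 37° C; IC50 values from concentration-effect curves.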

Row | Compound | IC50
1 | COc1ccc(OCC2CC2)c(-c2ncnc3c(C(=O)N[C@@H]4CN(C(C)=O)C[C@H]4O)c(C)[nH]c23)c1 (relative stereo) [Example E192, N-[(3R*,4R*)-1-Acetyl-4-hydroxypyrrolidin-3-yl]-4-[2-(cyclopropylmethoxy)-5-methoxyphenyl]-6-methyl-5H-pyrrolo[3,2-d]pyrimidine-7-carboxamide] | 1 to 10 nM
2 | CCOc1ccc(C(F)(F)F)cc1-c1ncnc2c(C(=O)NC3CCN(C(=O)COC)CC3)c(C)[nH]c12 [Example E101, 4-[2-Ethoxy-5-(trifluoromethyl)phenyl]-N-[1-(methoxyacetyl)piperidin-4-yl]-6-methyl-5H-pyrrolo[3,2-d]pyrimidine-7-carboxamide] | < 1 nM
3 | Cc1[nH]c2c(-c3c(OCC4CC4)ccc4c3OCO4)ncnc2c1C(=O)N[C@H]1CC[C@H](NC(=O)CO)CC1 [Example F3, 4-[5-(Cyclopropylmethoxy)-1,3-benzodioxol-4-yl]-N-[trans-4-(glycoloylamino)cyclohexyl]-6-methyl-5H-pyrrolo[3,2-d]pyrimidine-7-carboxamide] | < 1 nM
4 | CCOc1ccc(F)cc1-c1ncnc2c(C(=O)NC3CCN(C(=O)CC)CC3)c(C)[nH]c12 [Example E53, 4-(2-Ethoxy-5-fluorophenyl)-6-methyl-N-(1-propanoylpiperidin-4-yl)-5H-pyrrolo[3,2-d]pyrimidine-7-carboxamide] | 1 to 10 nM
5 | CC(=O)N1C[C@@H](O)[C@H](NC(=O)c2c(C)[nH]c3c(-c4ccc(F)cc4OCC4CC4)ncnc23)C1 (relative stereo) [Example E31, N-[(3R*,4R*)-1-acetyl-4-hydroxypyrrolidin-3-yl]-4-[2-(cyclopropylmethoxy)-4-fluorophenyl]-6-methyl-5H-pyrrolo[3,2-d]pyrimidine-7-carboxamide] | 1 to 10 nM

Results, then the compound that gave them:

Row | IC50 | Compound
6 | < 1 nM | COc1cc(OCC2CC2)c(-c2ncnc3c(C(=O)N[C@H]4CC[C@H](NC(=O)CO)CC4)c(C)[nH]c23)cc1F [Example F85, 4-[2-(Cyclopropylmethoxy)-5-fluoro-4-methoxyphenyl]-N-[trans-4-(glycoloylamino)cyclohexyl]-6-methyl-5H-pyrrolo[3,2-d]pyrimidine-7-carboxamide]
7 | < 1 nM | COCC(=O)N[C@H]1CC[C@H](NC(=O)c2c(C)[nH]c3c(-c4cc(F)c(OC)cc4OCC4CC4)ncnc23)CC1 [Example E137, 4-[2-(Cyclopropylmethoxy)-5-fluoro-4-methoxyphenyl]-N-{trans-4-[(methoxyacetyl)amino]cyclohexyl}-6-methyl-5H-pyrrolo[3,2-d]pyrimidine-7-carboxamide]
8 | < 1 nM | COc1cc(-c2ncnc3c(C(=O)N[C@H]4CC[C@@H](NC(C)=O)CC4)c(C)[nH]c23)c(OCC2CC2)cc1F [Example E110, N-(cis-4-Acetamidocyclohexyl)-4-[2-(cyclopropylmethoxy)-4-fluoro-5-methoxyphenyl]-6-methyl-5H-pyrrolo[3,2-d]pyrimidine-7-carboxamide]
9 | < 1 nM | COCC(=O)N1CC[C@@H](NC(=O)c2c(C)[nH]c3c(-c4cc(C)c(F)cc4OCC4CC4)ncnc23)[C@H](O)C1 (relative stereo) [Example E130, 4-[2-(Cyclopropylmethoxy)-4-fluoro-5-methylphenyl]-N-[(3R*,4R*)-3-hydroxy-1-(methoxyacetyl)piperidin-4-yl]-6-methyl-5H-pyrrolo[3,2-d]pyrimidine-7-carboxamide]
10 | < 1 nM | COc1cc(-c2ncnc3c(C(=O)N[C@@H]4CN(C(=O)CO)C[C@H]4O)c(C)[nH]c23)c(OCC2CC2)cc1F (relative stereo) [Example F113, 4-[2-(Cyclopropylmethoxy)-4-fluoro-5-methoxyphenyl]-N-[(3R*,4R*)-1-glycoloyl-4-hydroxypyrrolidin-3-yl]-6-methyl-5H-pyrrolo[3,2-d]pyrimidine-7-carboxamide]
